Values quoted from earlier work as cited in patent publication US20090005297A1 (priority 2004, published 2009).

Settings: nonspecific PEGylation at amine groups with one or two 5 kDa PEG

## variant aprotinin (T11 D, K15R, R17L, I18H, I19L, V34Y, R39L, K46E): variant aprotinin nonspecifically PEGylated at amine groups with one or two 5 kDa PEG (Stassen 1995)
  in vivo effectiveness: not improved
